Experimental data taken from publication PMC8288134, “Synthesis, potential antitumor activity, cell cycle analysis, and multitarget mechanisms of novel hydrazones incorporating a 4-methylsulfonylbenzene scaffold: a molecular docking study” (Journal of Enzyme Inhibition and Medicinal Chemistry, 2021).
Where two headings read alike, the source gives them in different places.

Assays:
UACC-257 = test system: UACC-257; set-up: method as in https://dtp.cancer.gov/dtpstandard/dwindex/index.jsp; conditions: reference drugs, ref https://dtp.cancer.gov/dtpstandard/dwindex/index.jsp; cited from earlier work
[1] = test system: leukaemia tumour cell lines; conditions: cited from earlier work; for GI50: read-out: GI50 (subpanel average), reference drugs, ref https://dtp.cancer.gov/dtpstandard/dwindex/index.jsp; for CC50: read-out: LC50 (subpanel average), reference drugs, ref https://dtp.cancer.gov/dtpstandard/dwindex/index.jsp; for TGI (subpanel average): reference drugs, ref https://dtp.cancer.gov/dtpstandard/dwindex/index.jsp
T-47D = test system: T-47D; set-up: method as in https://dtp.cancer.gov/dtpstandard/dwindex/index.jsp; conditions: reference drugs, ref https://dtp.cancer.gov/dtpstandard/dwindex/index.jsp; cited from earlier work
[2] = test system: melanoma tumour cell lines; conditions: cited from earlier work; for GI50: read-out: GI50 (subpanel average), reference drugs, ref https://dtp.cancer.gov/dtpstandard/dwindex/index.jsp; for CC50: read-out: LC50 (subpanel average), reference drugs, ref https://dtp.cancer.gov/dtpstandard/dwindex/index.jsp; for TGI (subpanel average): reference drugs, ref https://dtp.cancer.gov/dtpstandard/dwindex/index.jsp
MOLT-4 [3] = test system: MOLT-4; set-up: method as in https://dtp.cancer.gov/dtpstandard/dwindex/index.jsp; conditions: reference drugs, ref https://dtp.cancer.gov/dtpstandard/dwindex/index.jsp; cited from earlier work
M14 = test system: M14; set-up: method as in https://dtp.cancer.gov/dtpstandard/dwindex/index.jsp; conditions: reference drugs, ref https://dtp.cancer.gov/dtpstandard/dwindex/index.jsp; cited from earlier work
MDA-MB-231/ATCC = test system: MDA-MB-231/ATCC; set-up: method as in https://dtp.cancer.gov/dtpstandard/dwindex/index.jsp; conditions: reference drugs, ref https://dtp.cancer.gov/dtpstandard/dwindex/index.jsp; cited from earlier work
SNB-19 = test system: SNB-19; set-up: method as in https://dtp.cancer.gov/dtpstandard/dwindex/index.jsp; conditions: reference drugs, ref https://dtp.cancer.gov/dtpstandard/dwindex/index.jsp; cited from earlier work
MALME-3M = test system: MALME-3M; set-up: method as in https://dtp.cancer.gov/dtpstandard/dwindex/index.jsp; conditions: reference drugs, ref https://dtp.cancer.gov/dtpstandard/dwindex/index.jsp; cited from earlier work
786-0 = test system: 786-0; set-up: method as in https://dtp.cancer.gov/dtpstandard/dwindex/index.jsp; conditions: reference drugs, ref https://dtp.cancer.gov/dtpstandard/dwindex/index.jsp; cited from earlier work
SR = test system: SR; set-up: method as in https://dtp.cancer.gov/dtpstandard/dwindex/index.jsp; conditions: reference drugs, ref https://dtp.cancer.gov/dtpstandard/dwindex/index.jsp; cited from earlier work
PC-3 = test system: PC-3; set-up: method as in https://dtp.cancer.gov/dtpstandard/dwindex/index.jsp; conditions: reference drugs, ref https://dtp.cancer.gov/dtpstandard/dwindex/index.jsp; cited from earlier work
SF-268 [4] = test system: SF-268; set-up: method as in https://dtp.cancer.gov/dtpstandard/dwindex/index.jsp; conditions: reference drugs, ref https://dtp.cancer.gov/dtpstandard/dwindex/index.jsp; cited from earlier work
OVCAR-3 = test system: OVCAR-3; set-up: method as in https://dtp.cancer.gov/dtpstandard/dwindex/index.jsp; conditions: reference drugs, ref https://dtp.cancer.gov/dtpstandard/dwindex/index.jsp; cited from earlier work
MDA-MB-435 = test system: MDA-MB-435; set-up: method as in https://dtp.cancer.gov/dtpstandard/dwindex/index.jsp; conditions: reference drugs, ref https://dtp.cancer.gov/dtpstandard/dwindex/index.jsp; cited from earlier work
HOP-62 = assay: NCI antitumor screen (SRB); format: cell-based; conditions: Homo sapiens
DU-145 = assay: NCI antitumor screen (SRB); format: cell-based; conditions: Homo sapiens, one dose 10 µM, read-out: Growth inhibition percentage (GI%)
HL-60(TB) = assay: cells; format: cell-based, human; conditions: Homo sapiens, HL-60, HL-60(TB); one dose 10 µM; read-out: Growth inhibition percentage (GI%)
EKVX = assay: NCI antitumor screen (SRB); format: cell-based; conditions: Homo sapiens, one dose 10 µM, read-out: Growth inhibition percentage (GI%)
NCI-H23 = assay: NCI antitumor screen (SRB); format: cell-based; conditions: Homo sapiens, one dose 10 µM, read-out: Growth inhibition percentage (GI%)
NCI-H322M = assay: NCI antitumor screen (SRB); format: cell-based; conditions: Homo sapiens, one dose 10 µM, read-out: Growth inhibition percentage (GI%)
NCI-H226 = assay: NCI antitumor screen (SRB); format: cell-based; conditions: Homo sapiens, one dose 10 µM, read-out: Growth inhibition percentage (GI%)
SF-268 [5] = assay: NCI antitumor screen (SRB); format: cell-based; conditions: Homo sapiens, one dose 10 µM, read-out: Growth inhibition percentage (GI%)
LOX IMVI = assay: NCI antitumor screen (SRB); format: cell-based; conditions: Homo sapiens, one dose 10 µM, read-out: Growth inhibition percentage (GI%)
MOLT-4 [6] = assay: NCI antitumor screen (SRB); format: cell-based; conditions: Homo sapiens, one dose 10 µM, read-out: Growth inhibition percentage (GI%)
OVCAR-5 = assay: NCI antitumor screen (SRB); format: cell-based; conditions: Homo sapiens, one dose 10 µM, read-out: Growth inhibition percentage (GI%)
SNB-75 = assay: NCI antitumor screen (SRB); format: cell-based; conditions: Homo sapiens, one dose 10 µM, read-out: Growth inhibition percentage (GI%)
NCI/ADR-RES = assay: NCI antitumor screen (SRB); format: cell-based; conditions: Homo sapiens, one dose 10 µM, read-out: Growth inhibition percentage (GI%)
A498 = assay: NCI antitumor screen (SRB); format: cell-based; conditions: Homo sapiens, one dose 10 µM, read-out: Growth inhibition percentage (GI%)
SK-MEL-28 = assay: NCI antitumor screen (SRB); format: cell-based, human; conditions: Homo sapiens; SK-MEL-28; one dose 10 µM; read-out: Growth inhibition percentage (GI%)
COX-2 = molecular target: T1, COX-2 (Ovis aries, UniProt P79208); assay: biochemical; conditions: mean of three determinations; read-out: IC50 COX-2 Inhibition
T1 construct: purchased Cayman Chemical 560101
T1 sequence (P79208 17-603): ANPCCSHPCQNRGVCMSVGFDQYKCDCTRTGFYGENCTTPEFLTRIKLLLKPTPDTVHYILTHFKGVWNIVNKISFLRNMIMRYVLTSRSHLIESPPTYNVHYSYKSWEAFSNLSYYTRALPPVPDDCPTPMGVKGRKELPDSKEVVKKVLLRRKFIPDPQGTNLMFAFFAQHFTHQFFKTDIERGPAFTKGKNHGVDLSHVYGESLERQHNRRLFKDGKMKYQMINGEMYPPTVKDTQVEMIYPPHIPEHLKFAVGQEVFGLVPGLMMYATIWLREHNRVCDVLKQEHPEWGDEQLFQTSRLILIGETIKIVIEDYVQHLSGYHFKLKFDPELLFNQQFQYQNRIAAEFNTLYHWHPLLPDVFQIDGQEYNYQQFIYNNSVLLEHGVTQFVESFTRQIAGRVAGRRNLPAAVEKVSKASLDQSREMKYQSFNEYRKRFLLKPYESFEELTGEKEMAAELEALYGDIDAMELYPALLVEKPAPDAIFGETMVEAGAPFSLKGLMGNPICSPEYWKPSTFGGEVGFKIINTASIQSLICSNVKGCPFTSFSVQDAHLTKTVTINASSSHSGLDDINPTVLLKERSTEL
Procedure: had been previously attached to the well. The plate was washed to remove any unbound reagents, and then Ellman’s reagent, containing the substrate of acetylcholine esterase, was added to the well. This enzymatic reaction produced a distinct yellow color that was absorbed in 410 nm. The intensity of the color, determined spectrophotometrically, was proportional to the amount of PG tracer bound to the well, which was inversely proportional to PGs present in the well during the incubation: Absorbance ∝ [Bound PG Tracer] a1/PGs. Percent inhibition was calculated by comparing the treated compound to various control incubations. The test compound […]
inhibition response curve (duplicate determinations). […]

SMILES | GI50 (UACC-257) [µM] | GI50 [1] [µM] | CC50 [1] [µM] | TGI (subpanel average) [1] [µM] | GI50 (T-47D) [µM] | GI50 [2] [µM] | CC50 [2] [µM] | TGI (subpanel average) [2] [µM] | GI50 (MOLT-4 [3]) [µM] | GI50 (M14) [µM] | GI50 (MDA-MB-231/ATCC) [µM] | GI50 (SNB-19) [µM] | GI50 (MALME-3M) [µM] | GI50 (786-0) [µM] | GI50 (SR) [µM] | GI50 (PC-3) [µM] | GI50 (SF-268 [4]) [µM] | GI50 (OVCAR-3) [µM] | GI50 (MDA-MB-435) [µM] | other results
Cc1ccc(-c2cc(C(F)(F)F)nn2-c2ccc(S(N)(=O)=O)cc2)cc1 [Celecoxib, celecoxib] | 19.9 | 12.3 | 67.1 | 29.27 | 15.8 | 22.5 | 64.3 | 38.49 | 15.8 | 63.1 | 15.8 | 19.9 | 19.9 | 39.8 | 15.8 | 12.6 | 15.8 | 15.8 | 15.8 | –
O=c1[nH]cc(F)c(=O)[nH]1 [Compound 5-Fu, 5-fluorouracil, reference compound] | – | 2.82 | > 100 | 68.37 | – | 7.83 | 95.4 | 61.57 | – | – | – | – | – | – | – | – | – | – | – | inhibition at 10 µM (HOP-62; HOP-62, one dose 10 µM, read-out: Growth inhibition percentage (GI%)): 52.2%; inhibition at 10 µM (DU-145): 64.5%; inhibition at 10 µM (HL-60(TB)): 52.1%; inhibition at 10 µM (EKVX): 41.6%; inhibition at 10 µM (NCI-H23): 61%; inhibition at 10 µM (NCI-H322M): 40.5%; inhibition at 10 µM (NCI-H226): 30.5%; inhibition at 10 µM (SF-268 [5]): 41%; inhibition at 10 µM (LOX IMVI): 69.6%; inhibition at 10 µM (MOLT-4 [6]): 56.9%; inhibition at 10 µM (OVCAR-5): 55.7%; inhibition at 10 µM (SNB-75): 34.1%; inhibition at 10 µM (NCI/ADR-RES): 52.4%; inhibition at 10 µM (A498): > 100%
CS(=O)(=O)c1ccc(C(=O)NN=Cc2cccc3ccccc23)cc1 [Compound 6, 4-(Methylsulfonyl)-N'-(naphthalen-1-ylmethylene)benzohydrazide] | – | – | – | – | – | – | – | – | – | – | – | – | – | – | – | – | – | – | – | inhibition at 10 µM (HOP-62; HOP-62, read-out: Growth inhibition percentage (GI%)): 25.1%; inhibition at 10 µM (DU-145): 11.2%; inhibition at 10 µM (HL-60(TB)): 62.5%; inhibition at 10 µM (EKVX): 12.6%; inhibition at 10 µM (NCI-H23): 10.4%; inhibition at 10 µM (NCI-H322M): < 10%; inhibition at 10 µM (SK-MEL-28): 10.6%; inhibition at 10 µM (NCI-H226): 16.3%; IC50 (COX-2): 36.3 ± 2.55 µM; inhibition at 10 µM (SF-268 [5]): 14.3%; inhibition at 10 µM (LOX IMVI): 27.6%; inhibition at 10 µM (MOLT-4 [6]): 53.2%; inhibition at 10 µM (OVCAR-5): < 10%; inhibition at 10 µM (SNB-75): 10.3%; inhibition at 10 µM (NCI/ADR-RES): 26.5%; inhibition at 10 µM (A498): 30.9%
C#Cc1cccc(Nc2ncnc3cc(OCCOC)c(OCCOC)cc23)c1 [Erlotinib, erlotinib] | 100 | 27.9 | > 100 | 96.57 | 3.98 | 23.7 | 93.3 | 77.89 | 25.1 | 6.31 | 6.31 | 12.6 | 1.58 | 10 | 10 | 39.8 | 15.8 | 3.98 | 19.9 | –
COc1cc2ncnc(Nc3ccc(F)c(Cl)c3)c2cc1OCCCN1CCOCC1 [Gefitinib, gefitinib] | 2.51 | 2.56 | – | 12.07 | 7.94 | 3.68 | – | 12.49 | 2 | 2 | 3.98 | 3.16 | 3.98 | 3.16 | 3.16 | – | 2.51 | – | 3.16 | –
CNC(=O)c1cc(Oc2ccc(NC(=O)Nc3ccc(Cl)c(C(F)(F)F)c3)cc2)ccn1 [Sorafenib, sorafenib] | 1.99 | 1.91 | > 100 | 42.12 | – | 1.87 | 28.6 | 6.29 | 3.16 | 1.99 | 1.26 | 3.16 | 1.99 | 3.16 | 3.16 | 1.99 | 2.51 | 3.16 | – | –
CS(=O)(=O)c1ccc(C(=O)Nc2ccc(Cl)c(-c3ccccn3)c2)c(Cl)c1 [Vismodegib, vismodegib] | 50.1 | – | – | – | 31.6 | – | – | – | 31.6 | 31.6 | 19.9 | 63.1 | 39.8 | – | 39.8 | 25.1 | 39.8 | 50.1 | 31.6 | –
